# Patent US8278303B2, “Phosphine transition metal complex, process for producing same, and anticancer agent” (Nippon Chemical Industrial Co., Ltd., priority 2006, dated 2012)
# System: Human acute myelocytic leukemia cells HL-60
# Assay: Inhibitory activity on tumor cells, viable cell count by modified Mosmann (MTT) method
# Format: cell-based
# Settings: HL-60 cells, 50,000 cells/well, 24 hours culture with compound, then MTT 3 hours; average of at least triplicate; read-out: IC50 (fifty percent inhibitory concentration)
# Protocol: The cells were washed with PBS.
# Formazan crystals formed by the enzyme activity of mitochondria in the cells were dissolved in 0.04 mol/HCl/isopropyl alcohol.
structure (smiles),measurement,value
"CP(c1nc2ccccc2nc1P(C)C(C)(C)C)C(C)(C)C.CP(c1nc2ccccc2nc1P(C)C(C)(C)C)C(C)(C)C.[Au+].[Cl-] (stereo not shown) [Example 1, bis(2,3-bis(t-butylmethylphosphino)quinoxaline)gold (I) chloride]",IC50,517 nM
